Test results taken from the CheMixHub viscosity set.

Experiment: xn = mol fraction of the nth substance listed

Cc1cccc([N+](=O)[O-])c1 + CCCCCC
303.15 K, 101.33 kPa
Settings	viscosity [mPa·s]
x1 = 0.199	0.38
x1 = 0.416	0.58
x1 = 0.591	0.77
x1 = 0.802	1.11

CC(C)O + CCCCCCC
viscosity [mPa·s], 101 kPa
Settings	x2 = 0.1003	x2 = 0.2009	x2 = 0.3009	x2 = 0.398	x2 = 0.5002	x2 = 0.5961	x2 = 0.6981	x2 = 0.8014	x2 = 0.9084
293.15 K	1.596	1.178	0.9242	0.7437	0.6223	0.5479	0.493	0.4607	0.436
298.15 K	1.413	1.044	0.8165	0.6851	0.5866	0.5025	0.4623	0.4268	0.4025
303.15 K	1.23	0.927	0.7388	0.62	0.5333	0.4679	0.4351	0.4137	0.3897
308.15 K	1.091	0.8401	0.6728	0.577	0.4915	0.4441	0.4083	0.3805	0.3637

CC1CCCCC1 + CCCCCCC
viscosity [mPa·s]
Settings	293.15 K	298.15 K	303.15 K	308.15 K	323.15 K
100 kPa, x1 = 0.125	–	–	0.389	–	0.317
100 kPa, x1 = 0.25	–	–	0.411	–	0.335
100 kPa, x1 = 0.375	–	–	0.436	–	0.354
100 kPa, x1 = 0.5	–	–	0.465	–	0.375
100 kPa, x1 = 0.625	–	–	0.498	–	0.4
100 kPa, x1 = 0.75	–	–	0.538	–	0.43
100 kPa, x1 = 0.875	–	–	0.585	–	0.466
101 kPa, x1 = 0.0405	0.4128	0.3963	0.368	–	–
101 kPa, x1 = 0.1021	–	0.411	0.391	0.371	–
101 kPa, x1 = 0.1996	0.4451	0.4235	0.4003	–	–
101 kPa, x1 = 0.2033	–	0.432	0.41	0.389	–
101 kPa, x1 = 0.281	0.4637	0.4402	0.4162	–	–
101 kPa, x1 = 0.3044	–	0.451	0.427	0.403	–
101 kPa, x1 = 0.3593	0.4826	0.4568	0.4317	–	–
101 kPa, x1 = 0.4036	–	0.473	0.449	0.422	–
101 kPa, x1 = 0.4393	0.5042	0.474	0.4476	–	–
101 kPa, x1 = 0.5029	–	0.497	0.47	0.443	–
101 kPa, x1 = 0.6003	0.5514	0.5153	0.4887	–	–
101 kPa, x1 = 0.6033	–	0.526	0.496	0.467	–
101 kPa, x1 = 0.6793	0.5802	0.5399	0.512	–	–
101 kPa, x1 = 0.7038	–	0.556	0.524	0.492	–
101 kPa, x1 = 0.76	0.6141	0.571	0.5395	–	–
101 kPa, x1 = 0.8022	–	0.591	0.557	0.522	–
101 kPa, x1 = 0.84	0.6483	0.6042	0.5687	–	–
101 kPa, x1 = 0.9006	–	0.625	0.589	0.553	–
101 kPa, x1 = 0.9074	0.6821	0.6347	0.5964	–	–

CCCCCCCCCCCCCCCCCCCCCCCC + CCCCCCC
Settings	viscosity [mPa·s]
313.2 K, 101.3 kPa, x1 = 0.198	0.9672

CCOC(=O)c1ccccc1 + CCCCCCC
viscosity [mPa·s]
Settings	298.15 K	303.15 K	308.15 K	313.15 K	318.15 K
101 kPa, x1 = 0.1042	–	0.417	0.397	0.37	–
101 kPa, x1 = 0.2052	–	0.475	0.447	0.42	–
101 kPa, x1 = 0.3085	–	0.55	0.514	0.482	–
101 kPa, x1 = 0.4071	–	0.63	0.591	0.55	–
101 kPa, x1 = 0.5078	–	0.738	0.687	0.64	–
101 kPa, x1 = 0.6071	–	0.865	0.802	0.745	–
101 kPa, x1 = 0.7074	–	1.03	0.95	0.875	–
101 kPa, x1 = 0.8047	–	1.217	1.12	1.03	–
101 kPa, x1 = 0.9038	–	1.466	1.34	1.23	–
101.3 kPa, x1 = 0.098	0.428	–	0.387	–	0.351
101.3 kPa, x1 = 0.1952	0.484	–	0.433	–	0.393
101.3 kPa, x1 = 0.2948	0.55	–	0.492	–	0.44
101.3 kPa, x1 = 0.3941	0.638	–	0.564	–	0.498
101.3 kPa, x1 = 0.4961	0.747	–	0.655	–	0.571
101.3 kPa, x1 = 0.5985	0.882	–	0.767	–	0.662
101.3 kPa, x1 = 0.6974	1.047	–	0.912	–	0.771
101.3 kPa, x1 = 0.7984	1.263	–	1.082	–	0.913
101.3 kPa, x1 = 0.8972	1.539	–	1.286	–	1.08

CC1CCCCC1 + CCCCCCCC
viscosity [mPa·s], 101 kPa
Settings	293.15 K	298.15 K	303.15 K	308.15 K
x1 = 0.0401	0.5414	0.5075	0.482	–
x1 = 0.1044	–	0.524	0.496	0.468
x1 = 0.1998	0.5583	0.5193	0.4944	–
x1 = 0.2066	–	0.535	0.504	0.474
x1 = 0.2801	0.5689	0.5283	0.5018	–
x1 = 0.3045	–	0.543	0.512	0.481
x1 = 0.3514	0.5781	0.5367	0.5067	–
x1 = 0.4068	–	0.557	0.525	0.493
x1 = 0.4282	0.5879	0.5477	0.5161	–
x1 = 0.5043	–	0.57	0.537	0.504
x1 = 0.6015	–	0.586	0.552	0.518
x1 = 0.6051	0.6189	0.5761	0.5389	–
x1 = 0.6759	0.634	0.5912	0.5529	–
x1 = 0.7015	–	0.603	0.567	0.532
x1 = 0.7572	0.6552	0.6123	0.5712	–
x1 = 0.8023	–	0.624	0.587	0.55
x1 = 0.8382	0.6791	0.6323	0.5918	–
x1 = 0.8984	–	0.646	0.607	0.568
x1 = 0.9197	0.7023	0.6539	0.6124	–
x2 = 0.0861	–	0.655	–	–
x2 = 0.1756	–	0.633	–	–
x2 = 0.3246	–	0.602	–	–
x2 = 0.4674	–	0.577	–	–
x2 = 0.6154	–	0.559	–	–
x2 = 0.7785	–	0.526	–	–
x2 = 0.7797	–	0.535	–	–

CCOC(=O)c1ccccc1 + CCCCCCCC
101 kPa
Settings	viscosity [mPa·s]
298.15 K, x2 = 0.0634	1.743
298.15 K, x2 = 0.1034	1.624
298.15 K, x2 = 0.1463	1.503
298.15 K, x2 = 0.1843	1.405
298.15 K, x2 = 0.2315	1.299
298.15 K, x2 = 0.2774	1.203
298.15 K, x2 = 0.3224	1.125
298.15 K, x2 = 0.4189	0.973
298.15 K, x2 = 0.4608	0.92
298.15 K, x2 = 0.5113	0.861
298.15 K, x2 = 0.5549	0.813
298.15 K, x2 = 0.6018	0.767
298.15 K, x2 = 0.6476	0.726
298.15 K, x2 = 0.6978	0.686
298.15 K, x2 = 0.7588	0.644
298.15 K, x2 = 0.8037	0.616
298.15 K, x2 = 0.8646	0.583
298.15 K, x2 = 0.9214	0.556
303.15 K, x1 = 0.1144	0.526
303.15 K, x1 = 0.2227	0.58
303.15 K, x1 = 0.3291	0.655
303.15 K, x1 = 0.4327	0.738
303.15 K, x1 = 0.532	0.837
303.15 K, x1 = 0.6312	0.961
303.15 K, x1 = 0.7281	1.11
303.15 K, x1 = 0.8205	1.29
303.15 K, x1 = 0.9123	1.505
308.15 K, x1 = 0.1144	0.499
308.15 K, x1 = 0.2227	0.552
308.15 K, x1 = 0.3291	0.616
308.15 K, x1 = 0.4327	0.697
308.15 K, x1 = 0.532	0.786
308.15 K, x1 = 0.6312	0.896
308.15 K, x1 = 0.7281	1.033
308.15 K, x1 = 0.8205	1.197
308.15 K, x1 = 0.9123	1.385
308.15 K, x2 = 0.0649	1.485
308.15 K, x2 = 0.1092	1.382
308.15 K, x2 = 0.1488	1.3
308.15 K, x2 = 0.193	1.212
308.15 K, x2 = 0.2347	1.13
308.15 K, x2 = 0.2789	1.054
308.15 K, x2 = 0.3252	0.98
308.15 K, x2 = 0.3696	0.919
308.15 K, x2 = 0.4206	0.854
308.15 K, x2 = 0.4626	0.807
308.15 K, x2 = 0.5118	0.757
308.15 K, x2 = 0.5624	0.709
308.15 K, x2 = 0.5958	0.682
308.15 K, x2 = 0.6528	0.639
308.15 K, x2 = 0.7049	0.605
308.15 K, x2 = 0.756	0.575
308.15 K, x2 = 0.8027	0.55
308.15 K, x2 = 0.8565	0.525
308.15 K, x2 = 0.9175	0.501
313.15 K, x1 = 0.1144	0.468
313.15 K, x1 = 0.2227	0.516
313.15 K, x1 = 0.3291	0.574
313.15 K, x1 = 0.4327	0.649
313.15 K, x1 = 0.532	0.732
313.15 K, x1 = 0.6312	0.835
313.15 K, x1 = 0.7281	0.961
313.15 K, x1 = 0.8205	1.105
313.15 K, x1 = 0.9123	1.277
318.15 K, x2 = 0.0385	1.272
318.15 K, x2 = 0.0833	1.188
318.15 K, x2 = 0.1243	1.117
318.15 K, x2 = 0.1716	1.038
318.15 K, x2 = 0.2145	0.972
318.15 K, x2 = 0.263	0.905
318.15 K, x2 = 0.3062	0.85
318.15 K, x2 = 0.356	0.793
318.15 K, x2 = 0.4002	0.747
318.15 K, x2 = 0.4505	0.698
318.15 K, x2 = 0.4957	0.662
318.15 K, x2 = 0.5474	0.622
318.15 K, x2 = 0.5939	0.592
318.15 K, x2 = 0.6472	0.56
318.15 K, x2 = 0.6945	0.536
318.15 K, x2 = 0.7483	0.51
318.15 K, x2 = 0.7987	0.491
318.15 K, x2 = 0.8549	0.469
318.15 K, x2 = 0.9034	0.452
